Data on 4 compounds can be found in patent US12365698B2, “Application of boron dipyrromethene derivatives in anti-tumor and anti-bacterial therapy” (biolitec Unternehmensbeteiligungs III AG, priority 2019, dated 2025).

The subject of assay [1] is HT29 tumor cell line and other cell lines. Nature of the assay: Cell tests: dark toxicity and phototoxicity, XTT cell viability assay. The assay is classed as cell-based, human, mouse. To be noted: cell tests of example 3; 2 or 10 μM. How it is done:
The photosensitizing activity was determined in the following cell lines: • HT29 (human colon adenocarcinoma cell line) • L929 (mouse fibroblast cell line) • A431 (human epidermoid carcinoma cell line) • A253 (submaxillary salivary gland, epidermoid cell line) • CAL-27 (human tongue squamous cell carcinoma cell line) • J774A.1 (Mouse BALB/c monocyte macrophage).
The cell lines were grown in DMEM (c.c.pro GmbH) supplemented with 10% heat-inactivated fetal calf serum (FCS, c.c.pro GmbH), 1% penicillin (10000 IU) and streptomycin (10000 μg/ml, c.c.pro GmbH). Cells were kept as a monolayer culture in a humidified incubator (5% CO2 in air at 37° C.).
A photosensitizer stock solution (2 mM) was performed in DMSO and was kept in the dark at 4° C. Further dilution was performed in DMEM medium without phenol red supplemented with 10% FCS to reach a final photosensitizer concentration of 2 or 10 μM, respectively.
After seeding the cells in micro plates, the cells were incubated with fresh medium (DMEM without phenol red) containing 10% FCS with 2 or 10 μM of the photosensitizer for 24 h before light exposure. […]
The cell viability was assessed by the XTT assay. […]
The absorbance of the samples was measured with a microplate reader (infinite 200, Tecan Group Ltd.) at a wavelength of 490 nm.

Assay [2] concerns Staphylococcus aureus DSM 11729. Nature of the assay: Antibacterial testing (CFU/ml count, with and without white light). To be noted: for antibacterial activity in the presence of complex media (serum addition): PBS supplemented with 10% horse blood serum; for antibacterial activity in the presence of complex media (serum addition) / antibacterial activity of compounds which carry just one bromine atom: bacterium not given; for antibacterial activity against S. aureus in the absence of light: highest tested concentration of 100 μmol. In kind it is cell-based. The procedure:
The organisms studied were Staphylococcus aureus DSM 11729, Gram-positive and Pseudomonas aeruginosa DSM 1117, Gram-negative.
Cultures cells are suspended in sterile phosphate-buffered saline (PBS) or sterile PBS supplemented with 10% sterile horse blood serum. The bacterial suspensions are placed into sterile black well plates with clear bottoms. Concentrations of photosensitizer used in the study were as follows: 100 μM, 10 μM and 1 μM.
After an incubation time period of 30 minutes, the samples are exposed to white light, with a power density and irradiation time resulting in an energy fluency of about 100 J/cm^2. Control plates contained no photosensitizer and are not exposed to laser light. The control samples for dark toxicity are only exposed to photosensitizer without any illumination.
After irradiation, the samples are removed and suspended again in the culture media. The numbers of colony-forming units (CFU/ml) are enumerated after an adequate incubation time period.

Regarding “1,3,5,7-Tetramethyl-2,6-dibromo-8(4-propargylamino-3-nitrophenyl)-boron dipyrromethene [Example 4.5]”, the toxicity in cells entry in assay [1] is given as “low toxicity”. Moreover, the “specific activity against bacteria” value in assay [2] (compared with toxicity in cells) is recorded as “specifically active against bacteria”.

With “1,3,5,7-Tetramethyl-2,6-dibromo-8-(4-N-hydroxy-ethylamino-3-nitrophenyl)-boron dipyrromethene [Example 4.2]”, in assay [2], the “antibacterial activity in the presence of complex media (serum addition)” value is “antibacterial activity is also observed” and the “antibacterial activity against S. aureus in the absence of light” value is “high antibacterial activity”.

“2-Bromo-8-(4-butyloxy-2,3,5,6-tetrafluorophenyl)-boron dipyrromethene [Example 4.11]”: the “antibacterial activity of compounds which carry just one bromine atom” value in assay [2] is on record as “strong antibacterial activity”.

In the case of `C#CCNc1ccc(C2=C3C=CC=[N+]3[B-](F)(F)n3cc(Br)cc32)cc1[N+](=O)[O-]` [Example 4.1, 2-Bromo-8-(4-N-propargylamino-3-nitrophenyl)-boron dipyrromethene], in assay [2], the “antibacterial activity in the presence of complex media (serum addition)” value is “antibacterial activity is also observed”, the “antibacterial activity against S. aureus in the absence of light” value is listed as “high antibacterial activity” and the “antibacterial activity of compounds which carry just one bromine atom” value was “strong antibacterial activity”.
